Source: ChEMBL document CHEMBL1201862, “PubChem BioAssay data set” (2004)
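Five concentrations, 48 hours, 96-well plates. The concentration for 50% growth inhibition is given as GI50.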 Active and inactive are the calls of the source. Rule as the data show it: active = GI50 up to about 1.1 µM and inactive = higher.

Assays:
Test in all cases: DTP human tumour cell line panel, 48 h
[1] = system: SK-MEL-28
[2] = system: LOX IMVI
[3] = system: DLD-1
[4] = system: SF-539
[5] = system: A549
[6] = system: LXFL 529
[7] = system: CCRF-CEM
[8] = system: UACC-257
[9] = system: IGROV-1
[10] = system: SK-MEL-2
[11] = system: HCC 2998
[12] = system: SNB-19
[13] = system: EKVX
[14] = system: HT-29
[15] = system: SK-MEL-5
[16] = system: ACHN
[17] = system: SF-268
[18] = system: HOP-92
[19] = system: A498
[20] = system: TK-10
[21] = system: COLO 205
[22] = system: SNB-75
[23] = system: XF498
[24] = system: DMS-273
[25] = system: M14
[26] = system: HCT-116
[27] = system: U-251
[28] = system: OVCAR-3
[29] = system: DMS-114
[30] = system: NCI-H23
[31] = system: SK-OV-3
[32] = system: SNB-78
[33] = system: M19-MEL
[34] = system: NCI-H460
[35] = system: NCI-H226
[36] = system: OVCAR-8
[37] = system: SF-295
[38] = system: 786-0
[39] = system: SN12C
[40] = system: MOLT-4
[41] = system: UO-31
[42] = system: OVCAR-4
[43] = system: Malme-3M
[44] = system: SW-620
[45] = system: K562
[46] = system: KM-20L2
[47] = system: OVCAR-5
[48] = system: HCT-15
[49] = system: UACC-62
[50] = system: CAKI-1
[51] = system: KM12
[52] = system: HL-60
[53] = system: NCI/ADR-RES
[54] = system: MCF7
[55] = system: HOP-62
[56] = system: HOP-18
[57] = system: RPMI-8226
[58] = system: RXF 393
[59] = system: NCI-H522

In the case of `CC(C)OP(=O)(NC(=S)c1ccccc1)OC(C)C`, the GI50 [1] is reported as > 100 µM (inactive), the GI50 [2] is reported as > 100 µM (inactive) and the GI50 [3] is reported as > 100 µM (inactive). For the same molecule, the GI50 [4] was > 100 µM (inactive), the GI50 [5] was 92 µM (inactive) and the GI50 [6] was 57.7 µM (inactive). The GI50 [7] was 74.5 µM (inactive), the GI50 [8] was > 100 µM (inactive) and the GI50 [9] was > 100 µM (inactive). The GI50 [10] was > 100 µM (inactive), the GI50 [11] was > 100 µM (inactive) and the GI50 [12] was > 100 µM (inactive). For the same molecule, the GI50 [13] was > 100 µM (inactive), the GI50 [14] was 43.5 µM (inactive) and the GI50 [15] was 34.5 µM (inactive). For the same molecule, the GI50 [16] was > 100 µM (inactive), the GI50 [17] was > 100 µM (inactive) and the GI50 [18] was > 100 µM (inactive). For the same molecule, the GI50 [19] was 43 µM (inactive), the GI50 [20] was > 100 µM (inactive) and the GI50 [21] was > 100 µM (inactive). The GI50 [22] was > 100 µM (inactive), the GI50 [23] was > 100 µM (inactive) and the GI50 [24] was > 100 µM (inactive). The GI50 [25] was > 100 µM (inactive), the GI50 [26] was > 100 µM (inactive) and the GI50 [27] was > 100 µM (inactive). The GI50 [28] was > 100 µM (inactive), the GI50 [29] was 70.8 µM (inactive) and the GI50 [30] was > 100 µM (inactive). For the same molecule, the GI50 [31] was > 100 µM (inactive), the GI50 [32] was > 100 µM (inactive) and the GI50 [33] was > 100 µM (inactive). The GI50 [34] was 23.4 µM (inactive), the GI50 [35] was > 100 µM (inactive) and the GI50 [36] was > 100 µM (inactive). For the same molecule, the GI50 [37] was > 100 µM (inactive), the GI50 [38] was > 100 µM (inactive) and the GI50 [39] was 95.1 µM (inactive). The GI50 [40] was 80.7 µM (inactive), the GI50 [41] was > 100 µM (inactive) and the GI50 [42] was > 100 µM (inactive). For the same molecule, the GI50 [43] was > 100 µM (inactive), the GI50 [44] was > 100 µM (inactive) and the GI50 [45] was > 100 µM (inactive). The GI50 [46] was > 100 µM (inactive), the GI50 [47] was > 100 µM (inactive) and the GI50 [48] was over 100 µM. For the same molecule, the GI50 [49] was 71.1 µM (inactive), the GI50 [50] was > 100 µM (inactive) and the GI50 [51] was > 100 µM (inactive).
In the case of `O=S(=O)(O)c1cc(/N=[N+](\[O-])c2ccc(/N=N/c3ccccc3)cc2S(=O)(=O)O)ccc1/C=C/c1ccc(/N=[N+](\[O-])c2ccc(/N=N/c3ccccc3)cc2S(=O)(=O)O)cc1S(=O)(=O)O`, the GI50 [52] is reported as > 100 µM (inactive), the GI50 [1] is reported as > 100 µM (inactive) and the GI50 [2] is reported as > 100 µM (inactive). The GI50 [3] was > 100 µM (inactive), the GI50 [4] was > 31.6 µM (inactive) and the GI50 [53] was > 100 µM (inactive). For the same molecule, the GI50 [5] was > 100 µM (inactive), the GI50 [7] was > 95.3 µM (inactive) and the GI50 [8] was > 100 µM (inactive). For the same molecule, the GI50 [9] was > 100 µM (inactive), the GI50 [10] was > 100 µM (inactive) and the GI50 [11] was > 100 µM (inactive). For the same molecule, the GI50 [12] was > 100 µM (inactive), the GI50 [13] was > 100 µM (inactive) and the GI50 [14] was > 100 µM (inactive). The GI50 [15] was > 100 µM (inactive), the GI50 [17] was > 100 µM (inactive) and the GI50 [18] was > 100 µM (inactive). For the same molecule, the GI50 [19] was > 100 µM (inactive), the GI50 [21] was > 100 µM (inactive) and the GI50 [22] was 72.8 µM (inactive). For the same molecule, the GI50 [23] was > 100 µM (inactive), the GI50 [24] was > 95.3 µM (inactive) and the GI50 [54] was > 100 µM (inactive). The GI50 [26] was > 100 µM (inactive), the GI50 [27] was > 100 µM (inactive) and the GI50 [28] was > 100 µM (inactive). The GI50 [29] was > 100 µM (inactive), the GI50 [55] was > 100 µM (inactive) and the GI50 [56] was > 100 µM (inactive). The GI50 [30] was > 100 µM (inactive), the GI50 [31] was > 100 µM (inactive) and the GI50 [32] was > 100 µM (inactive). The GI50 [33] was > 100 µM (inactive), the GI50 [34] was > 100 µM (inactive) and the GI50 [35] was > 32.6 µM (inactive). For the same molecule, the GI50 [57] was > 100 µM (inactive), the GI50 [36] was > 100 µM (inactive) and the GI50 [37] was > 58.3 µM (inactive). For the same molecule, the GI50 [39] was > 100 µM (inactive), the GI50 [40] was > 100 µM (inactive) and the GI50 [41] was > 100 µM (inactive). The GI50 [42] was > 87.3 µM (inactive), the GI50 [58] was > 100 µM (inactive) and the GI50 [43] was > 100 µM (inactive). The GI50 [44] was > 100 µM (inactive), the GI50 [45] was > 100 µM (inactive) and the GI50 [47] was > 100 µM (inactive). For the same molecule, the GI50 [48] was over 100 µM, the GI50 [49] was > 100 µM (inactive) and the GI50 [51] was > 100 µM (inactive). For the same molecule, the GI50 [59] was > 100 µM (inactive).
